Paper PMC6364417, “Kinase inhibitor library screening identifies synergistic drug combinations effective in sensitive and resistant melanoma cells” (Journal of Experimental & Clinical Cancer Research : CR, 2019)

Experiments:
Experiment in all cases: Kinase inhibitor library screening, PrestoBlue cell viability, 1 or 10 μM, 72 h
501Mel cells (parental) = settings: 501Mel Parental, 72 h, in %
Outline: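 Single-point screen at two doses over three days. Parental and BRAF-inhibitor-resistant sublines (XP: Vemurafenib; GP: Dabrafenib) were assessed by PrestoBlue viability, reported relative to untreated cells.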

[1] = tested on: 501Mel-GP cells (Dabrafenib-resistant); settings: 501Mel GP, 72 h, in %
[2] = tested on: 501Mel-XP cells (Vemurafenib-resistant); settings: 501Mel XP, 72 h, in %
A375 cells (parental) = settings: A375 Parental, 72 h
[3] = tested on: A375-GP cells (Dabrafenib-resistant); settings: A375 GP, 72 h; for cell viability, A375 GP, 1μΜ / cell viability, A375 GP, 10μΜ: in %
[4] = tested on: A375-XP cells (Vemurafenib-resistant); settings: A375 XP, 72 h; for cell viability, A375 XP, 1μΜ / cell viability, A375 XP, 10μΜ: in %
IGR37 cells (parental) = settings: IGR37 Parental, 72 h, in %
[5] = tested on: IGR37-GP cells (Dabrafenib-resistant); settings: IGR37 GP, 72 h
[6] = tested on: IGR37-XP cells (Vemurafenib-resistant); settings: IGR37 XP, 72 h

| SMILES | cell viability, 501Mel Parental, 1μΜ (501Mel cells (parental); 1μΜ) | cell viability, 501Mel Parental, 10μΜ (501Mel cells (parental); 10μΜ) | cell viability, 501Mel GP, 1μΜ ([1]; 1μΜ) | cell viability, 501Mel GP, 10μΜ ([1]; 10μΜ) | cell viability, 501Mel XP, 1μΜ ([2]; 1μΜ) | cell viability, 501Mel XP, 10μΜ ([2]; 10μΜ) | cell viability, A375 Parental, 10μΜ (A375 cells (parental); 10μΜ, in %) | cell viability, A375 GP, 1μΜ ([3]; 1μΜ) | cell viability, A375 GP, 10μΜ ([3]; 10μΜ) | cell viability, A375 XP, 1μΜ ([4]; 1μΜ) | cell viability, A375 XP, 10μΜ ([4]; 10μΜ) | cell viability, IGR37 Parental, 1μΜ (IGR37 cells (parental); 1μΜ) | cell viability, IGR37 Parental, 10μΜ (IGR37 cells (parental); 10μΜ) | cell viability, IGR37 GP, 10μΜ ([5]; 10μΜ) | cell viability, IGR37 GP, 1μΜ ([5]; 1μΜ, in %) | cell viability, IGR37 XP, 10μΜ ([6]; 10μΜ) | cell viability, IGR37 XP, 1μΜ ([6]; 1μΜ, in %) | further results |
| --- | --- | --- | --- | --- | --- | --- | --- | --- | --- | --- | --- | --- | --- | --- | --- | --- | --- | --- |
| CC(=O)Nc1cccc(-n2c(=O)n(C3CC3)c(=O)c3c(Nc4ccc(I)cc4F)n(C)c(=O)c(C)c32)c1 [GSK1120212 (Trametinib)] | 55.4 | 64.9 | 90.4 | 77.4 | 75.6 | 62.1 | 21.8 | 18.8 | 16.2 | 14.9 | 14.6 | 37.2 | 36.1 | 56.9% | 89.3 | 22.1% | 38.3 | cell viability, A375 Parental, 1μΜ (A375 cells (parental); 1μΜ, in %): 21.7 |
| CCc1cc(Nc2nccc(-c3c(-c4ccc(OC)c(C(=O)Nc5c(F)cccc5F)c4)nc4ccccn34)n2)c(OC)cc1N1CCC(N2CCN(S(C)(=O)=O)CC2)CC1 [GSK1904529A] | 99.4 | 98.3 | 109.2 | 89.5 | 93.0 | 82.3 | 94.0 | 98.4 | 92.6 | 104.6 | 97.7 | 114.5 | 96.7 | 62.6% | 98.3 | 20.4% | 98.9 |  |
| COc1ncc(-c2ccc3nccc(-c4ccnnc4)c3c2)cc1NS(=O)(=O)c1ccc(F)cc1F [GSK2126458] |  |  |  |  |  |  |  |  |  |  |  |  |  |  |  |  |  | Cell viability in kinase inhibitor library screening, 501Mel Parental, 1μΜ (501Mel cells (parental); 1μΜ): 3.1; Cell viability in kinase inhibitor library screening, 501Mel Parental, 10μΜ (501Mel cells (parental); 10μΜ): 0.9; Cell viability in kinase inhibitor library screening, 501Mel GP, 1μΜ ([1]; 1μΜ): 6.0; Cell viability in kinase inhibitor library screening, 501Mel GP, 10μΜ ([1]; 10μΜ): 0.6; Cell viability in kinase inhibitor library screening, 501Mel XP, 1μΜ ([2]; 1μΜ): 2.1; Cell viability in kinase inhibitor library screening, 501Mel XP, 10μΜ ([2]; 10μΜ): 0.8; Cell viability in kinase inhibitor library screening, A375 Parental, 10μΜ (A375 cells (parental); 10μΜ): 3.2; Cell viability in kinase inhibitor library screening, A375 Parental, 1μΜ (A375 cells (parental); 1μΜ): 15.7; Cell viability in kinase inhibitor library screening, A375 GP, 1μΜ ([3]; 1μΜ): 14.4; Cell viability in kinase inhibitor library screening, A375 GP, 10μΜ ([3]; 10μΜ): 3.9; Cell viability in kinase inhibitor library screening, A375 XP, 1μΜ ([4]; 1μΜ): 13.7; Cell viability in kinase inhibitor library screening, A375 XP, 10μΜ ([4]; 10μΜ): 2.8; Cell viability in kinase inhibitor library screening, IGR37 Parental, 1μΜ (IGR37 cells (parental); 1μΜ): 7.2; Cell viability in kinase inhibitor library screening, IGR37 Parental, 10μΜ (IGR37 cells (parental); 10μΜ): 0.469; Cell viability in kinase inhibitor library screening, IGR37 GP, 10μΜ ([5]; 10μΜ): 2.7%; Cell viability in kinase inhibitor library screening, IGR37 GP, 1μΜ ([5]; 1μΜ, in %): 9.1; Cell viability in kinase inhibitor library screening, IGR37 XP, 10μΜ ([6]; 10μΜ): 1.1%; Cell viability in kinase inhibitor library screening, IGR37 XP, 1μΜ ([6]; 1μΜ, in %): 7.6 |
